# Data published in patent US7205295B2, “Benzoxazin-3-ones and derivatives thereof as therapeutic agents” (Warner-Lambert Company LLC, priority 2002, dated 2007).
# Where a name gives a salt, the structure may show the parent alone.
# Target: T1, PI3Kγ (p101/p110γ protein) (Homo sapiens, UniProt P48736)
# T1 construct: HA; made in house; host or cells: Spodoptera frugiperda (Sf9) cells, baculovirus co-infection
# Assay: PI3Kγ In Vitro Kinase Assay
# Format: biochemical
# Details: purified recombinant p101/p110γ with G protein β1/γ2 subunits; 20 μM ATP, 25 μM PIP2; 20 minutes at room temperature
# How it was run: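 Sf9-expressed, purified human p101/p110γ (2.7 nM) was activated by Gβ1/γ2 (57.7 nM) and reacted with 20 μM ATP plus [γ-32P]ATP on PIP2 (25 μM)/PE (300 μM) micelles with 10 mM MgCl2 in HEPES buffer. Reactions ran 20 min at room temperature. Filter-captured radiolabeled PIP3 was counted by scintillation.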
# T1 sequence (P48736 whole entry, species assumed): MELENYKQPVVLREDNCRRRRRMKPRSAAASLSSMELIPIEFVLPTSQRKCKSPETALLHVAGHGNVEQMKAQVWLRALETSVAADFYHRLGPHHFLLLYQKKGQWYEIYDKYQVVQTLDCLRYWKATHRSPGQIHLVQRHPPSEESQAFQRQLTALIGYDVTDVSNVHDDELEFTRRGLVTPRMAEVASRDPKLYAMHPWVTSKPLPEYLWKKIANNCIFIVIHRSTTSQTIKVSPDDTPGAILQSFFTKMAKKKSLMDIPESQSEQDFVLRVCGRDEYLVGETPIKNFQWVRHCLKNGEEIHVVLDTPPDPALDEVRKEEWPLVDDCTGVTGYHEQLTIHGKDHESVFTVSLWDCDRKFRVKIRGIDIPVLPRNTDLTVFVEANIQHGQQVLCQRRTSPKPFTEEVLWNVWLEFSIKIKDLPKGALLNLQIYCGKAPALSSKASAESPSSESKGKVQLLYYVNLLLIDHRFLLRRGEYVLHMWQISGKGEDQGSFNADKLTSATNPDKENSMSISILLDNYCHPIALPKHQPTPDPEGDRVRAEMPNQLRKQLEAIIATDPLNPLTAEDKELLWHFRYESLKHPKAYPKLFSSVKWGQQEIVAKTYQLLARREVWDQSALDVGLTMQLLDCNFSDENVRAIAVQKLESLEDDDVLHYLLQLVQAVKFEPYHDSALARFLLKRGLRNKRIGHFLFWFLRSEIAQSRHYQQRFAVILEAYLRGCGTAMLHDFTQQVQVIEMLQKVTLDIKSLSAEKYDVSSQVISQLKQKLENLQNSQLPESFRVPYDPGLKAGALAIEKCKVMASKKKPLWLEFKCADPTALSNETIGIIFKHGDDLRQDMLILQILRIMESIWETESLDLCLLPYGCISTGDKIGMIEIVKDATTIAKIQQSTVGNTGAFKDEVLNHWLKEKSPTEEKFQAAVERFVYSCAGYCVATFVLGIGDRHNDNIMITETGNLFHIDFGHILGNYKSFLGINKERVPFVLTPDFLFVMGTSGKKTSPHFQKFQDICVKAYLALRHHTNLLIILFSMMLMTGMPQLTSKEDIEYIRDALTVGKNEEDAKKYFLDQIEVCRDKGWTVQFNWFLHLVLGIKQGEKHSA
# T1 sequence (Q8WYR1 whole entry partner, species assumed): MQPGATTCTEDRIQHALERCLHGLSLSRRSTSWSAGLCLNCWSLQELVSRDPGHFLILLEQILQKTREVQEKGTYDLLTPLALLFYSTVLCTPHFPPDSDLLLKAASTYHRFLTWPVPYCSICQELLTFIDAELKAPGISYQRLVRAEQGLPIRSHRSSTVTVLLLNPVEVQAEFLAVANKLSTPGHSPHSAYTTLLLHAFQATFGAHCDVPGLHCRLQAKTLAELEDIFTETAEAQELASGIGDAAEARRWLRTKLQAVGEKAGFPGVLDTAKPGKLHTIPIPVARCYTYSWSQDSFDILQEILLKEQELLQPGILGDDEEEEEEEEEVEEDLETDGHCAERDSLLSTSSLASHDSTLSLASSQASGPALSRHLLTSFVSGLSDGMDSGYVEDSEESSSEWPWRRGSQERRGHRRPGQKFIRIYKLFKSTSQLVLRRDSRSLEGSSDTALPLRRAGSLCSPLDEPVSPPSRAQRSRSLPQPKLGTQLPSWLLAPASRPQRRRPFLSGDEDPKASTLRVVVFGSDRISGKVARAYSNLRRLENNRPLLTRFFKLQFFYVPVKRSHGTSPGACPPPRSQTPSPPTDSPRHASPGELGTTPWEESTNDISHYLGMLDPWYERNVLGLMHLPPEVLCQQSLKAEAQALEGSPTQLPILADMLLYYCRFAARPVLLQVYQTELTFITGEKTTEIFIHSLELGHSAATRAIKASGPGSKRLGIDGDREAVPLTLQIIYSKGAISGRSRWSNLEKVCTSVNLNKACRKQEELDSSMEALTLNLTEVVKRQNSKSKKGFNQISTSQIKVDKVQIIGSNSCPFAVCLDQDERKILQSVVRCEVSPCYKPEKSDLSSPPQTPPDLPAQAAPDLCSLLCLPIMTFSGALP
row,SMILES,IC50 [µM]
1,"Cc1cc(C=C2SC(=S)NC2=O)cc2c1OCC(=O)N2Cc1cc(C(C)(C)C)cc(C(C)(C)C)c1 [Example 61, 4-(3,5-Di-tert-butyl-benzyl)-8-methyl-6-(4-oxo-2-thioxo-thiazolidin-5-ylidenemethyl)-4H-1,4-benzoxazin-3-one]",0.07
2,"CC(C)(C)c1cc(CN2C(=O)COc3ccc(C=C4SC(=O)NC4=O)cc32)cc(C(C)(C)C)c1O [Example 219, 5-[4-(3,5-Di-tert-butyl-4-hydroxy-benzyl)-3-oxo-3,4-dihydro-2H-1,4-benzoxazin-6-ylmethylene]-thiazolidine-2,4-dione]",0.006
3,"CN1CCN(Cc2ccc(CN3C(=O)COc4ccc(C=C5SC(=S)NC5=O)cc43)cc2)CC1 [Example 33, 4-[4-(4-Methyl-piperazin-1-ylmethyl)-benzyl]-6-(4-oxo-2-thioxo-thiazolidin-5-ylidenemethyl)-4H-1,4-benzoxazin-3-one]",0.004
4,"CCN(CC)Cc1ccc(CN2C(=O)COc3c(F)cc(C=C4SC(=S)NC4=O)cc32)cc1 [Example 72, 4-(4-Diethylaminomethyl-benzyl)-8-fluoro-6-(4-oxo-2-thioxo-thiazolidin-5-ylidenemethyl)-4H-1,4-benzoxazin-3-one]",0.014
5,"CC(C)(C)c1cc(CN2CCOCC2)cc(CN2C(=O)COc3ccc(/C=C4\SC(=O)NC4=O)cc32)c1 [Example 277, 5-[1-[4-(3-tert-Butyl-5-morpholin-4-ylmethyl-benzyl)-3-oxo-3,4-dihydro-2H-benzo[1,4]oxazin-6-yl]-meth-(Z)-ylidene]-thiazolidine-2,4-dione]",0.005
6,"C[C@@H]1CCC[C@H](C)N1Cc1ccc(CN2C(=O)COc3ccc(C=C4SC(=S)NC4=O)cc32)cc1 [Example 27, 4-[4-((2S, 6R)-2,6-Dimethyl-piperidin-1-ylmethyl)-benzyl]-6-(4-oxo-2-thioxo-thiazolidin-5-ylidenemethyl)-4H-1,4-benzoxazin-3-one]",0.003
7,"CC1CC(C)CN(C(=O)CN2C(=O)COc3ccc(C=C4SC(=S)NC4=O)cc32)C1 (stereo not drawn) [Example 213, 4-[2-(3,5-Dimethyl-piperidin-1-yl)-2-oxo-ethyl]-6-(4-oxo-2-thioxo-thiazolidin-5-ylidenemethyl)-4H-1,4-benzoxazin-3-one]",2.1
8,"O=C1CC(=Cc2ccc3c(c2)NC(=O)CO3)C(=O)N1 [Example 86, 3-(3-Oxo-3,4-dihydro-2H-benzo[1,4]oxazin-6-ylmethylene)-pyrrolidine-2,5-dione]",12.3
9,"COC(=O)CN1C(=O)COc2ccc(C=C3SC(=S)NC3=O)cc21 [Example 7, [3-Oxo-6-(4-oxo-2-thioxo-thiazolidin-5-ylidenemethyl)-2,3-dihydro-1,4-benzoxazin-4-yl]-acetic acid methyl ester]",0.084
10,"Cc1cc(C=C2SC(=S)NC2=O)cc2c1OCC(=O)N2CCc1ccc(Cl)c(Cl)c1 [Example 112, 4-[2-(3,4-dichloro-phenyl)-ethyl]-8-methyl-6-(4-oxo-2-thioxo-thiazolidin-5-ylidenmethyl)-4H-benzo[1,4]oxazin-3-one]",0.022
11,"O=C1NC(=S)SC1=Cc1ccc2c(c1)N(Cc1ccc(S(=O)(=O)N3CCOCC3)cc1)C(=O)CO2 [Example 259, 4-[4-(Morpholine-4-sulfonyl)-benzyl]-6-(4-oxo-2-thioxo-thiazolidin-5-ylidenemethyl)-4H-1,4-benzoxazin-3-one]",0.013
12,"CC(C)CCN1C(=O)COc2ccc(C=C3SC(=S)NC3=O)cc21 [Example 144, 4-(3-Methyl-butyl)-6-(4-oxo-2-thioxo-thiazolidin-5-ylidenemethyl)-4H-benzo[1,4]oxazin-3-one]",0.024
13,"O=C1NC(=S)S/C1=C\c1ccc2oc(=O)n(Cc3ccc(Cl)c(Cl)c3)c2c1 [Example 286, 3-(3,4-Dichloro-benzyl)-5-[4-oxo-2-thioxo-thiazolidin-(5Z)-ylidenemethyl]-3H-benzooxazol-2-one]",0.22

# Other lines, results leading:
row,IC50 [µM],SMILES
1,0.003,"Cc1ccc(CN2C(=O)COc3ccc(C=C4SC(=S)NC4=O)cc32)cc1C [Example 97, 4-(3,4-Dimethyl-benzyl)-6-(4-oxo-2-thioxo-thiazolidin-5-ylidenemethyl)-4H-1,4-benzoxazin-3-one]"
2,0.002,"O=C1NC(=S)SC1=Cc1ccc2c(c1)N(OCc1ccc(C(F)(F)F)cc1)C(=O)CO2 [Example 207, 6-(4-Oxo-2-thioxo-thiazolidin-5-ylidenemethyl)-4-(4-trifluoromethyl-benzyloxy)-4H-benzo[1,4]oxazin-3-one]"
3,0.005,"Cc1cccc(CN2C(=O)COc3ccc(C=C4SC(=S)NC4=O)cc32)c1C [Example 98, 4-(2,3-Dimethyl-benzyl)-6-(4-oxo-2-thioxo-thiazolidin-5-ylidenemethyl)-4H-benzo[1,4]oxazin-3-one]"
4,0.009,"CC(C)n1cnc2ccc(CN3C(=O)COc4ccc(C=C5SC(=S)NC5=O)cc43)cc21 [Example 336, 4-(3-Isopropyl-3H-benzimidazol-5-ylmethyl)-6-(4-oxo-2-thioxo-thiazolidin-5-ylidenemethyl)-4H-1,4-benzoxazin-3-one]"
5,0.004,"O=C1NC(=S)SC1=Cc1ccc2c(c1)N(CCCOc1ccccc1)C(=O)CO2 [Example 161, 6-(4-Oxo-2-thioxo-thiazolidin-5-ylidenemethyl)-4-(3-phenoxy-propyl)-4H-1,4-benzoxazin-3-one]"
6,0.006,"O=C1NC(=S)SC1=Cc1ccc2c(c1)N(Cc1ccc(Cl)c(C(F)(F)F)c1)C(=O)CO2 [Example 194, 4-(4-Chloro-3-trifluoromethylbenzyl)-6-(4-oxo-2-thioxo-thiazolidin-5-ylidenemethyl)-4H-1,4-benzoxazin-3-one, Potassium Salt]"
7,0.042,"O=C1NC(=S)SC1=Cc1ccc2c(c1)N(Cc1cc(Br)cc(Br)c1)C(=O)CO2 [Example 217, 4-(3,5-Dibromo-benzyl)-6-(4-oxo-2-thioxo-thiazolidin-5-ylidenemethyl)-4H-1,4-benzoxazin-3-one]"
8,0.021,"O=C1NC(=S)SC1=Cc1ccc2c(c1)N(Cc1cccc(C(F)(F)F)c1)C(=O)CO2 [Example 157, 6-(4-Oxo-2-thioxo-thiazolidin-5-ylidenemethyl)-4-(3-trifluoromethyl-benzyl)-4H-1,4-benzoxazin-3-one]"
9,0.001,"Cc1cc(CN2C(=O)COc3ccc(C=C4SC(=S)NC4=O)cc32)ccc1F [Example 306, 4-(4-Fluoro-3-methyl-benzyl)-6-(4-oxo-2-thioxo-thiazolidin-5-ylidenemethyl)-4H-benzo[1,4]oxazin-3-one]"
10,0.016,"CC(C)S(=O)(=O)c1cccc(CN2C(=O)COc3ccc(C=C4SC(=S)NC4=O)cc32)c1 [Example 253, 6-(4-Oxo-2-thioxo-thiazolidin-5-ylidenemethyl)-4-[3-(propane-2-sulfonyl)-benzyl]-4H-1,4-benzoxazin-3-one]"
11,0.007,"CC(C)(O)c1cc(CN2C(=O)COc3ccc(C=C4SC(=S)NC4=O)cc32)ccc1Cl [Example 332, 4-[4-Chloro-3-(1-hydroxy-1-methyl-ethyl)-benzyl]-6-(4-oxo-2-thioxo-thiazolidin-5-ylidenemethyl)-4H-1,4-benzoxazin-3-one; compound with ethane-1,2-diamine]"
12,0.067,"Cc1cc(CN2C(=O)COc3ccc(C=C4SC(=S)NC4=O)cc32)cc(-c2cnccn2)c1 [Example 121, 4-(3-Methyl-5-pyrazin-2-yl-benzyl)-6-(4-oxo-2-thioxo-thiazolidin-5-ylidenemethyl)-4H-benzo[1,4]oxazin-3-one]"
13,0.027,"O=C1NC(=S)SC1=Cc1ccc2c(c1)N(Cc1cccnc1)C(=O)CO2 [Example 12, 6-(4-Oxo-2-thioxo-thiazolidin-5-ylidenemethyl)-4-pyridin-3-ylmethyl-4H-1,4-benzoxazin-3-one]"
14,0.049,"O=C1NC(=S)SC1=Cc1ccc2c(c1)N(Cc1cc(Cl)nc(Cl)c1)C(=O)CO2 [Example 225, 4-(2,6-Dichloro-pyridin-4-ylmethyl)-6-(4-oxo-2-thioxo-thiazolidin-5-ylidenemethyl)-4H-1,4-benzoxazin-3-one]"
15,0.01,"COc1ccc(CN2C(=O)COc3ccc(C=C4SC(=S)NC4=O)cc32)cc1C(F)(F)F [Example 167, 4-(4-Methoxy-3-trifluoromethyl-benzyl)-6-(4-oxo-2-thioxo-thiazolidin-5-ylidenemethyl)-4H-1,4-benzoxazin-3-one]"
16,0.145,"NC(=O)c1cccc(CN2C(=O)COc3ccc(C=C4SC(=S)NC4=O)cc32)c1 [Example 172, 3-[3-Oxo-6-(4-oxo-2-thioxo-thiazolidin-5-ylidenemethyl)-2,3-dihydro-1,4-benzoxazin-4-ylmethyl]-benzamide]"
17,0.64,"O=C1NC(=S)SC1=Cc1cnc2c(c1)N(Cc1ccccc1)C(=O)CO2 [Example 189, 1-Benzyl-7-(4-oxo-2-thioxo-thiazolidin-5-ylidenemethyl)-1H-pyrido[2,3-b][1,4]oxazin-2-one; compound with ethane-1,2-diamine]"
18,0.002,"O=C1NC(=S)SC1=Cc1ccc2c(c1)N(CCCCc1ccccc1)C(=O)CO2 [Example 174, 6-(4-Oxo-2-thioxo-thiazolidin-5-ylidenemethyl)-4-(4-phenyl-butyl)-4H-1,4-benzoxazin-3-one]"
19,0.008,"CC(C)(O)c1cc(CN2C(=O)COc3ccc(C=C4SC(=S)NC4=O)cc32)ccc1F [Example 304, 4-[4-Fluoro-3-(1-hydroxy-1-methyl-ethyl)-benzyl]-6-(4-oxo-2-thioxo-thiazolidin-5-ylidenemethyl)-4H-benzo[1,4]oxazin-3-one; Compound with Ethane-1,2-diamine]"
20,0.025,"O=C1NC(=S)SC1=Cc1ccc2c(c1)N(CCc1ccccc1)C(=O)CO2 [Example 5, 6-(4-Oxo-2-thioxo-thiazolidin-5-ylidenemethyl)-4-phenethyl-4H-1,4-benzoxazin-3-one]"

# System: not given
# Assay: not given
# Details: not given
row,melting point [°C],SMILES
1,> 300,"Cc1ccc(CN2C(=O)COc3ccc(C=C4SC(=S)NC4=O)cc32)cc1C [Example 97, 4-(3,4-Dimethyl-benzyl)-6-(4-oxo-2-thioxo-thiazolidin-5-ylidenemethyl)-4H-1,4-benzoxazin-3-one]"
2,> 300,"O=C1NC(=S)SC1=Cc1ccc2c(c1)N(OCc1ccc(C(F)(F)F)cc1)C(=O)CO2 [Example 207, 6-(4-Oxo-2-thioxo-thiazolidin-5-ylidenemethyl)-4-(4-trifluoromethyl-benzyloxy)-4H-benzo[1,4]oxazin-3-one]"
3,> 300,"Cc1cccc(CN2C(=O)COc3ccc(C=C4SC(=S)NC4=O)cc32)c1C [Example 98, 4-(2,3-Dimethyl-benzyl)-6-(4-oxo-2-thioxo-thiazolidin-5-ylidenemethyl)-4H-benzo[1,4]oxazin-3-one]"
